Experimental data reported in paper PMC7179167 (Molecules, 2020).
≈ marks a conversion by molar mass, not a printed value. Read-outs that look alike come from different tables or passages of the source.

What was measured:
Bcl-2 = Bcl-2 ELISA in MCF-7 cells; type: cell-based, human; details: for Bcl-2 (ng/50 mg Protein): MCF-7 cells treated at IC50 concentration, control 25.13 ± 3.45, mean ± SD; for Reduction of expression level of antiapoptotic protein Bcl-2 compared to the control: MCF-7 cells, IC50 concentration
Description: (§1) The promising antiproliferative results reported for compounds 11a, 11b, 12a, 12b and 13c against cell lines under study have prompted us to investigate the mechanism of cell death induced by these compounds. Apoptosis induction was examined in both MCF-7 and HCT-116 cancer cells by assaying the level of its key protein markers, namely: proapoptotic (p53, Bcl 2-associated X, Bax and caspases3) and antiapoptotic (B-cell lymphoma-2, Bcl-2). MCF-7 and HCT-116 cells undergoing apoptosis was detected by use of the ELISA technique. Protein marker levels were quantified according to Bradford assay.
(§2) Briefly, cells ([…] and HCT) were seeded at a concentration of 1.2–1.8 × 10^3 cells/well in 6-well plates. After 48-h treatment, the collected cells were lysed and centrifuged at 10,000 rpm for 20 min at 4 °C. The protein concentration was measured in the supernatant by Bradford protein assay. Volume containing […] of total protein was incubated with […] of caspase substrate in […] of the reaction buffer at 37 °C for 1 h in the dark. Caspase-3 activity was determined by a microplate reader at 405 nm using a caspase-3 colorimetric assay kit (Abcam) according to the manufacturer’s instructions. In vitro protein level quantitative measurement of apoptotic marker p53, Bcl-2-associated X (Bax) and antiapoptotic marker B-cell lymphoma-2 (Bcl-2) in cell lysate were assessed by Enzyme-Linked Immunosorbent Assay Simple Step ELISA® (ab199080, ab119506 and ab171571; Abcam) according to the manufacturer’s instructions.

[1] = tested on: HCT-116 (human colon cancer); test: MTT cytotoxicity assay, HCT-116; type: cell-based; details: Homo sapiens; for inhibition at 100 µg/mL: HCT-116, 100 µg/ml, 48 h, read-out: Growth Inhibition (%) HCT-116; for IC50: HCT-116, 48 h, 48 h post-treatment
Description: MCF-7 (human breast cancer), HCT-116 (human colon cancer) and HepG2 (human liver cancer) cell lines were obtained from Karolinska Institute, Stockholm, Sweden. All cells were maintained in RPMI 1640 medium. The media were supplemented with 10% heat-inactivated fetal bovine serum plus 1% antibiotic-antimycoticmixture (10,000 U/mL of potassium penicillin, 10,000 μg/mL of streptomycin sulfate, 25 μg/mL of amphotericin B and 1% of L glutamine (Biowest, USA)). BJ-1 of a human skin fibroblast derived from normal foreskin was obtained from ATCC® CRL-2522™ as a frozen ampoule with about 1 × 10^6 cells per 1 ml volume. BJ-1 was maintained in MEM with 2 mM of L-glutamine and Earle’s salts medium.
Cell viability was studied using the MTT 3-(4,5-dimethylthiazol-2-yl)-2,5-diphenyl-tetrazolium bromide (Bio Basic Canada Inc. Toronto, Canada) assay [33]. The steps were executed in a sterile laminar air flow cabinet biosafety class II level (Baker, SG403INT; Sanford, ME, USA). All incubations were carried out at 37 °C in a 5% CO2 incubator under a humidified atmosphere of 95% (Sheldon, TC2323; Cornelius, OR, USA). Cells were seeded into 96-well microtiter plastic plates at a concentration of (10^4 cells/well) and allowed to adhere for 24 h. The medium was aspirated and then added to the cells with the test compounds 11a–c, 12a–c, 13a–i, 14a–i and 15a,b at a single dose of 100 μg/mL in DMSO. After incubation of the medium for 48 h, 40 μL of MTT salt (2.5 μg/mL) was added to each well and then incubated for an additional 4 h. To stop the reaction and dissolve any formed formazan crystals, 200 μL of 10% sodium dodecyl sulfate (SDS) were added to each well and incubated overnight at 37 °C. The amount of formazan product was measured at 595 nm with a reference wavelength of 690 nm as a background using a microplate reader (Bio-Rad Laboratories, model 3350, California, USA). For the untreated cells (negative control), the medium was added instead of the tested compounds. […] Dimethylsulfoxide (DMSO) was the vehicle used for dissolution of the testing compound, and its final concentration on the cells was less than 0.2%. At the same dilution, the solvent concentration was the same for all drugs and between the control and drug treatments.

[2] = DPPH free radical scavenging assay; type: biochemical; details: concentration of 20µg/l, mean ± SD of three experiments
How it was run: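 Compound DMSO stock (1 mg/mL) added to fresh DPPH in DMSO (20 mg/L), vortexed 1 min, kept dark for 15–60 min. Absorbance at 517 nm; % scavenging = (A control − A sample)/A control × 100; triplicates averaged. Ascorbic acid served as reference.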

Bax = Bax ELISA in HCT-116 cells; type: cell-based, human; details: HCT-116 cells treated at IC50 concentration; control 118.54 ± 0.83; mean ± SD
Description: as §1, §2

p53 = p53 ELISA in HCT-116 cells; type: cell-based, human; details: HCT-116 cells treated at IC50 concentration; control 1.68 ± 0.06; mean ± SD
Description: as §1, §2

S. aureus (ATCC 6538) = test: Disk diffusion antimicrobial test, S. aureus; type: cell-based, Staphylococcus aureus; details: Staphylococcus aureus, ATCC6538, Gram-positive, 20 mg per disc (title), concentration 20 µg (footnote)
Description: (§3) The newly synthesized compounds were chosen to be evaluated in vitro towards a variety of pathogenic microorganisms; Gram-positive bacteria: S. aureus (ATCC 6538) and B. subtilis (ATCC 6633); Gram-negative bacteria: P. areuginosa (ATCC 27853) and E. coli (DSMZ 1058); yeast: C. albicans (ATCC 10231) and S. cerevisiae (ATCC 9080) and fungi: A. niger (NRRL A-326) using the disk diffusion method at a single dose of 20 µl. The results are shown in Table 1 as the growth inhibition zone (mm).
(§4) The antimicrobial activity of target compounds were evaluated to be in vitro against a variety of pathogenic microorganisms, namely Staphylococcus aureus (ATCC 6538), Bacillus subtilis (ATCC 6633) (Gram-positive bacteria), Pseudomonas areuginosa (ATCC 27853), Escherichia coli (DSMZ 1058) (Gram-negative bacteria), Candida albicans (ATCC 10231), Saccharomyces cerevisiae (ATCC 9080) (Yeast) and Aspergillus niger (NRRL A-326) (Fungi) using the disk diffusion method at a single dose of 20 µg. The microorganisms were served and obtained from the Microbial Biotechnology Department, National Research Center, Giza, Egypt. Amphotericin, amoxicillin and ciprofloxacin were used as reference drugs (Oxoid™ Disks). The tested compounds 11a–c, 12a–c, 13a–i, 14a–i and 15a,b were dissolved in dimethylsulphoxide (DMSO) at a concentration of 1 mg/mL. Aliquots of 20 μl were soaked on filter paper discs (6 mm) and dried at room temperature under sterilized conditions. The paper discs were placed on inoculated agar plats and then incubated for 24 h at 37 °C for bacterial strains and after 48–72 h incubation at 30 °C for fungi. Both bacterial and yeast strains were grown on nutrient agar medium (g/l): beef extract, 3; peptone, 10 and agar, 20 at pH of 7.2. The fungal strain was grown on Czapek-Dox medium (g/l): sucrose, 30; NaNO3, 3; MgSO4.7H2O, 0.5l; KCl, 0.5; FeSO4, 0.01; K2HPO4, 1 and agar, 20 at pH of 6.0.

A. niger (NRRL A-326) = test: Disk diffusion antimicrobial test, A. niger; type: cell-based; details: Aspergillus niger, fungi, 20 mg per disc (title), concentration 20 µg (footnote)
Description: as §3, §4

[3] = 15 min, read-out: Scavenging Activity (%) on DPPH radicals at 15 min
[4] = 30 min, read-out: Scavenging Activity (%) on DPPH radicals at 30 min
[5] = 45 min, read-out: Scavenging Activity (%) on DPPH radicals at 45 min
[6] = 60 min, read-out: Scavenging Activity (%) on DPPH radicals at 60 min

## COc1c(C2=NNC3(C2)C(=O)Nc2ccccc23)c(O)cc2occc12 (stereo not drawn) [Compound 11a, 5’-(6-Hydroxy-4-methoxy-benzofuran-5-yl)-2’,4’-dihydrospiro(indoline-3,3’-pyrazol)-2-one]
Bcl-2
  Bcl-2 (ng/50 mg Protein): 12.3 ± 2.26 ng/50 mg Protein
  Reduction of expression level of antiapoptotic protein Bcl-2 compared to the control: ~ 50%
[1]
  inhibition at 100 µg/mL: 96.2%
  IC50: 5.7 µg/mL (≈ 16.3 µM)
[2]; [3]
  inhibition: 6.86 ± 1.17%
[2]; [4]
  inhibition: 10.3 ± 1.37%
[2]; [5]
  inhibition: 17.7 ± 1.28%
[2]; [6]
  inhibition: 26.9 ± 1.56%
Bax
  Bax (pg/50 mg Protein): 159.26 ± 0.96 pg/50 mg Protein
p53
  p53 (pg/50 mg Protein): 16.2 ± 0.56 pg/50 mg Protein

## COc1cc2occc2c(OC)c1C1=NNC2(C1)C(=O)Nc1ccccc12 (stereo not drawn) [Compound 11b, 5’-(4,6-Dimethoxy-benzofuran-5-yl)-2’,4’-dihydrospiro(indoline-3,3’-pyrazol)-2-one]
Bcl-2
  Bcl-2 (ng/50 mg Protein): 16.18 ± 0.78 ng/50 mg Protein
[1]
  inhibition at 100 µg/mL: 94.9%
  IC50: 16.4 µg/mL (≈ 45.1 µM)
[2]; [3]
  inhibition: 9.6 ± 1.77%
[2]; [4]
  inhibition: 14.3 ± 1.52%
[2]; [5]
  inhibition: 20.4 ± 1.65%
[2]; [6]
  inhibition: 30.8 ± 2.04%
Bax
  Bax (pg/50 mg Protein): 119.14 ± 1.65 pg/50 mg Protein
p53
  p53 (pg/50 mg Protein): 3.25 ± 0.15 pg/50 mg Protein

## COc1c(C2=NNC3(C2)C(=O)Nc2ccccc23)c(O)c(OC)c2occc12 (stereo not drawn) [Compound 12a, 5’-(6-Hydroxy-4,7-dimethoxy-benzofuran-5-yl)-2’,4’-dihydrospiro(indoline-3,3’-pyrazol)-2-one]
Bcl-2
  Bcl-2 (ng/50 mg Protein): 13.09 ± 2.27 ng/50 mg Protein
  Reduction of expression level of antiapoptotic protein Bcl-2 compared to the control: ~52%
[1]
  inhibition at 100 µg/mL: 96.7%
  IC50: 5.8 µg/mL (≈ 15.3 µM)
[2]; [3]
  inhibition: 56.4 ± 1.08%
[2]; [4]
  inhibition: 67.1 ± 1.45%
[2]; [5]
  inhibition: 76.9 ± 1.51%
[2]; [6]
  inhibition: 81.4 ± 1.37%
Bax
  Bax (pg/50 mg Protein): 124.56 ± 0.95 pg/50 mg Protein
S. aureus (ATCC 6538)
  zone of inhibition at 20 µg/disc: 8 mm
p53
  p53 (pg/50 mg Protein): 23.11 ± 1.22 pg/50 mg Protein

## COc1c(C2=NNC3(C2)C(=O)Nc2ccccc23)c(OC)c2ccoc2c1OC (stereo not drawn) [Compound 12b, 5’-(4,6,7-Trimethoxy-benzofuran-5-yl)-2’,4’-dihydrospiro(indoline-3,3’-pyrazol)-2-one]
Bcl-2
  Bcl-2 (ng/50 mg Protein): 12.87 ± 1.84 ng/50 mg Protein
  Reduction of expression level of antiapoptotic protein Bcl-2 compared to the control: ~51%
[1]
  inhibition at 100 µg/mL: 95.1%
  IC50: 7.9 µg/mL (≈ 20.1 µM)
A. niger (NRRL A-326)
  zone of inhibition at 20 µg/disc: 8 mm
[2]; [3]
  inhibition: 17.3 ± 1.53%
[2]; [4]
  inhibition: 23.5 ± 1.64%
[2]; [5]
  inhibition: 30.6 ± 1.49%
[2]; [6]
  inhibition: 40.6 ± 1.46%
Bax
  Bax (pg/50 mg Protein): 191.07 ± 1.95 pg/50 mg Protein
S. aureus (ATCC 6538)
  zone of inhibition at 20 µg/disc: 10 mm
p53
  p53 (pg/50 mg Protein): 48.07 ± 1.94 pg/50 mg Protein
